# “Also recorded” adds a separate entry of the source. Structures can show the parent of a compound that is named as a salt.
# Tests used:
# [1] = molecular target: T1, DA2 (Oryctolagus cuniculus, UniProt G1T1Q0); assay: DA2-agonist activity on electrically stimulated rabbit ear artery; conditions: inhibition of contraction induced by electric stimulation; for EC50: read-out: DA2 rabbit ear artery pD2 (-log EC50) (converted)
# T1 construct: Transversal sections (2-3 mm) of rabbit ear artery were suspended in isolated organ baths; from tissue; host or cells: rabbit ear artery (transversal sections)
# T1 sequence (G1T1Q0 1-443): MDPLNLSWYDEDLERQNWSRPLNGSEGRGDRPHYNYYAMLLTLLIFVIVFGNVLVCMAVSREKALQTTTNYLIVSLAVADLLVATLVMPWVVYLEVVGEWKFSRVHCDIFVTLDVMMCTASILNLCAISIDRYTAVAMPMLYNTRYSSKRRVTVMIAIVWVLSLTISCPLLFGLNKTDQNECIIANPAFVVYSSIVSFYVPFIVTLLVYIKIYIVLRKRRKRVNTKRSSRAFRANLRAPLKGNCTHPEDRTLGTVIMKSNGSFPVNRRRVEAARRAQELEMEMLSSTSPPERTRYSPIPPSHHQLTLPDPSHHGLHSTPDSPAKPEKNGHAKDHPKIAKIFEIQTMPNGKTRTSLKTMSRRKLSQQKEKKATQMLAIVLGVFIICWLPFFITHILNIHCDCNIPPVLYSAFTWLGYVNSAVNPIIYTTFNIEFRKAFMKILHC
# Experimental: DA2 -agonist activity was evaluated as follows. Transversal sections (2-3 mm) of rabbit ear artery were suspended in isolated organ baths containing Krebs-Henseleit solution added with corticosterone (30 μM), desipramine (0.1 μM) and EDTA (10 μM).
# The preparation, subjected to a traction of 1 g and to an electric stimulation with field pulses every 5 minutes (10 Hz, 1 msec., 30-60 V, 500 msec. duration) were left stabilize for about 2 hours.
# Each preparation was submitted to three increasing concentrations allowing the recovery of the basal conditions before the subsequent administration.
# [2] = molecular target: T2, D1 receptor (Rattus norvegicus, UniProt P18901); assay: biochemical; conditions: [3H]-SCH23390; rat striatal membranes; Table 2; read-out: Binding D1 rat striatum Ki
# T2 sequence (P18901 whole entry): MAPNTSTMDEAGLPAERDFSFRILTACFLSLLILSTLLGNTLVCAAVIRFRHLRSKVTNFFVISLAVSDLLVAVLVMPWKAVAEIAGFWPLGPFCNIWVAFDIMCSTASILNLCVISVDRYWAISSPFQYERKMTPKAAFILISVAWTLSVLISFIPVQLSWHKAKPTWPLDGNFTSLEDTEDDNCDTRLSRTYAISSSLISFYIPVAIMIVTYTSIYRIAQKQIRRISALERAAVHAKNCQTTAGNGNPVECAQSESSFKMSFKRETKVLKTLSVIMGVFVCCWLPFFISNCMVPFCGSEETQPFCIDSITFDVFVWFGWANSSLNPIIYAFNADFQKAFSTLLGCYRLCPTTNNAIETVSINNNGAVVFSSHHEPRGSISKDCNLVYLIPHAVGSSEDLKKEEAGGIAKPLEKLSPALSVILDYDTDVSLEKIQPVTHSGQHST
# Experimental: (§1) The tissues were homogenized in 50 mM Tris/HCl buffer, pH 7.4 (1:100 weight/volume).
# (§2) The homogenate was centrifuged and the pellet was resuspended, centrifuged again and resuspended in 50 mM Tris/HCl buffer pH 7.4 containing 120 mM NaCl, 5mM KCl, 2mM CaCl2 and 1 mM MgCl2.
# [3] = molecular target: T3, D2 receptor (Rattus norvegicus, UniProt P61169); assay: biochemical; conditions: [3H]-spiperone; rat striatal membranes; Table 2; read-out: Binding D2 rat striatum Ki
# T3 sequence (P61169 whole entry): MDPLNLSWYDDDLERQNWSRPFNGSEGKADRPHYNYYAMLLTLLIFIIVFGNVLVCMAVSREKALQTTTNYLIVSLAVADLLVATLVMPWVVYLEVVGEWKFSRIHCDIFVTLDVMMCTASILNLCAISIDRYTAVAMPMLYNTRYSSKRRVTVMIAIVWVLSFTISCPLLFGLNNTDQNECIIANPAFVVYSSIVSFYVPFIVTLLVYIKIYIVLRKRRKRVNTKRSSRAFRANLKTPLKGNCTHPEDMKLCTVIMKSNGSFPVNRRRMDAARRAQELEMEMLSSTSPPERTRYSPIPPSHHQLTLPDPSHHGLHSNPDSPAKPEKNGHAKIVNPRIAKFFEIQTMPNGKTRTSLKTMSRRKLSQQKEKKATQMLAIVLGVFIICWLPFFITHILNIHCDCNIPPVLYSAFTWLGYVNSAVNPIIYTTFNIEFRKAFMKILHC
# Experimental: as §1, §2
# The standard incubation conditions (volume 1 ml) for the assay in which [^3 H]-SCH23390 was used were as follows: 50 mM Tris/HCl buffer (pH 7.4), 0.2 nM [^3 H]-SCH23390, a membrane preparation (3 mg/ml corresponding to 130-150 μg proteins/ml), incubation temperature 37° C. and incubation time 15 minutes. The standard incubation conditions (volume 2 ml) for the assay in which [^3 H]-spiperone was used were as follows: 50 mM Tris/HCl buffer (pH 7.4), 0.2 nM [^3 H]-spiperone, a membrane preparation (3 mg/ml corresponding to 130-150 μg proteins/ml), incubation temperature 37° C. and incubation time 15 minutes.
# [4] = in words; cited from earlier work
# [5] = molecular target: T3, D2 receptor; assay: Receptor binding, D2 receptor, [3H]-domperidone, rat striatal membranes (part A); set-up: membranes from striatal tissues were prepared; from tissue; host or cells: rat striatum (membranes); species or system rat (Sprague-Dawley); conditions: for Ki: [3H]-domperidone, rat striatal membranes, Table 1, read-out: Affinity Ki for D2 receptor
# Experimental: as §1, §2
# For D2 -receptor binding studies [^3 H]-domperidone (0.3 nM) was incubated in a volume of 1000 μl containing buffer and a membrane preparation as above described. In addition bovine serum albumine (BSA) (0.01%) was added. The mixture was incubated at 37° C. for 30 minutes for each concentration of the tested compounds.
# [6] = test system: dopaminergic receptors; conditions: in words; cited from earlier work
# [7] = molecular target: T2, D1 receptor; assay: Receptor binding, D1 receptor, [3H]-SCH23390, rat striatal membranes (part A); set-up: membranes from striatal tissues were prepared; from tissue; host or cells: rat striatum (membranes); species or system rat (Sprague-Dawley); conditions: for Ki: [3H]-SCH23390, rat striatal membranes, Table 1, read-out: Affinity Ki for D1 receptor
# [8] = test system: SHR rats; assay: In vivo antihypertensive activity, systolic blood pressure by tail cuff in conscious SHR rats; set-up: species or system rat (SHR)
# Experimental: Male SHR rats, 3-4 months old, fasted 16 hours before the experiment were used. Systolic blood pressure (SBP) and heart rate (HR) were recorded by tail cuff method in conscious animals by means of a BP Recorder (W+W Basile, Italy). Before every pressure determination animals were maintained at 37° C. for 10 minutes.
# SBP and HR values were recorded before and at various times up to seven hours after treatment with the tested compounds.
# The compounds were administered orally by gavage, in a volume of 10 ml/kg, at doses between 10 and 160 mg/kg. For the administration, the compounds were suspended in carboxymethylcellulose (CMC) 0.5% in water and additioned with Tween 80 (0.3 ml/10 ml of CMC).
# The obtained results, expressed as ED30mmHg (mg/kg p.o.) that is the dose causing a decrease of 30 mmHg from the basal value of SBP (about 15% decrease) are the following: […]
SMILES,EC50 [1],Ki [2],Ki [3],further results
"NCCc1ccc(O)c(O)c1 [Dopamine, dopamine]",,,,Oral absorption (literature) [4]: lack of absorption by opal route; also recorded: not absorbed when administered by oral route; DA2 rabbit ear artery pD2 (-log EC50) [1]: 7.40
"CCCCN(CCCCCCN(C)CCOc1ccccc1OC)[C@@H]1CCc2cc(O)c(O)cc2C1 [Compound 11, (R)-N-butyl-N-[2-(6,7-dihydroxy-1,2,3,4-tetrahydro)naphthyl]-N'-methyl-N'-[2-(2-methoxyphenoxy)ethyl]-1,6-hexanediamine dihydrochloride]",1350 nM,11700 nM,630 nM,
"CCCCN(CCCN(C)CCOc1ccc(C)cc1Cl)[C@@H]1CCc2cc(O)c(O)cc2C1 [Compound 14, (R)-N-butyl-N-[2-(6.,7-dihydroxy-l,2,3,4-tetrahydro)naphthyl]-N'-methyl-N'-[2-[(2-chloro-4-methyl)phenoxy]ethyl]-1.3-propanediamine dihydrochloride]",6030 nM,2800 nM,260 nM,
"Oc1ccc(CCNCCCCCCNCCc2ccccc2)cc1O [Dopexamine, dopexamine, reference compound]",447 nM,3200 nM,1700 nM,Ki [5]: 145 nM; Oral absorption (literature) [4]: not absorbed when administered by oral route; Agonist activity on dopaminergic receptors relative to dopamine [6]: less active than dopamine; Ki [7]: 2230 nM
"CCCCN(CCCNCCOc1ccc(C)cc1OC)[C@H]1CCc2c(ccc(O)c2O)C1 [Compound 9, (S)-N-butyl-N-[3-[2-[(2-methoxy-4-methyl)phenoxy]ethylamino]propyl]-5,6-dihydroxyl-1,2,3,4-teyrahydro-2-naphthylamine dihydrochloride]",1050 nM,22000 nM,190 nM,
"CCCN(CCCN(C)CCOc1ccccc1OC)[C@H]1CCc2c(ccc(O)c2O)C1 [Compound 13, (S)-N-propyl-N-[2-(5,6-dihydroxy-1,2,3,4-tetrahydro)naphthyl]-N'-methyl-N'-[2-(2-methoxyphenoxy)ethyl]-1,3-propanediamine dihydrochloride]",4.07 nM,3600 nM,9.8 nM,

# Further compounds by falling Ki [2], results first:
EC50 [1],Ki [2],Ki [3],SMILES,further results
44.7 nM,2650 nM,16 nM,"CCCN(CCCNCCOc1ccccc1Cl)[C@@H]1CCc2cc(O)c(O)cc2C1 [Compound 8, (R)-N-propyl-N-[3-[2-[(2-chlorophenoxy)ethylamino]propyl]-6,7-dihydroxy-1,2,3,4-tetrahydro-2-naphthylaminedihydrochloride]",
2.14 nM,1100 nM,1.1 nM,"CCCN(CCCNCCOc1ccccc1OC)[C@H]1CCc2c(ccc(O)c2O)C1 [Compound 7, (S)-N-propyl-N-[3-[2-[(2-methoxyphenoxy)ethylamino]propyl]-5,6-dihydroxy-1,2,3,4-tetrahydro-2-naphthylaminedihydrochloride]",
513 nM,700 nM,80 nM,"CCCCN(CCCCCCNCCOc1ccccc1Cl)[C@H]1CCc2c(ccc(O)c2O)C1 [Compound 4, (S)-N-butyl-N-[6-[2-2-(chlorophenoxy)ethylamino]hexyl]-5,6-dihydroxy-1,2,3,4-tetrahydro-2-naphthylamine dihydrochloride]",
29.5 nM,560 nM,86 nM,"CCCCN(CCCCCCNCCOc1ccccc1OC)[C@H]1CCc2c(ccc(O)c2O)C1 [Compound 3, (S)-N-butyl-N-[6-[2-(2-methoxyphenoxy)ethylamino]hexyl]-5,6-dihydroxy-1,2,3,4-tetrahydro-2-naphthylamine dihydrochloride]",
3.39 nM,410 nM,5.5 nM,"CCCN(CCCCCCN(C)CCOc1ccccc1OC)[C@H]1CCc2c(ccc(O)c2O)C1 [Compound 10, (S)-N-[2-(5,6-dihydroxy-1,2,3,4-tetrahydro)naphthyl]-N-propyl-N'-methyl-N'-[2-(2-methoxyphenoxy)ethyl]-1,6-hexanediamine dihychloride]",
4.37 nM,315 nM,8.4 nM,"CCCN(CCCCCCNCCOc1ccccc1OC)[C@@H]1CCc2cc(O)c(O)cc2C1 [Compound 2, (R)-N-propyl-N-[6-[2-(2-methoxyphenoxy)ethylamino]hexyl]-6,7-dihydroxyl-1,2,3,4-tetrahydro-2-naphthylamino dihydrochloride]",
457 nM,180 nM,8.3 nM,"CCCN(CCCCCCN(C)CCOc1ccc(C)cc1Cl)[C@H]1CCc2c(ccc(O)c2O)C1 [Compound 12, (S)-N-[2-(5,6-dihydroxy-1,2,3,4-tetrahydro)naphthyl]-N-propyl-N'-methyl-N'-[2-[(2-chloro-4-methyl]phenoxyl]ethyl]-1,6-hexanediamine dihydrochloride]",
6.92 nM,120 nM,5 nM,"CCCN(CCCCCCNCCOc1ccc(C)cc1Cl)[C@H]1CCc2c(ccc(O)c2O)C1 [Compound 5, (S)-N-propyl-N-[6-[2-[(2-chloro-4-methyl)phenoxy]ethylamino]-hexyl]-5,6-dihydroxy-1,2,3,4-tetrahydro-2-naphthylamine dihydrochloride]",
1.07 nM,90 nM,0.5 nM,"CCCN(CCCCCCNCCOc1ccccc1OC)[C@H]1CCc2c(ccc(O)c2O)C1 [Compound 1, S-(-)-N-propyl-N-[6-(2-(2-methoxyphenoxy)ethylamino]hexyl]-5,6-dihydroxy-1,2,3,4-tetrahydro-2-naphthylamine dihydrchloride]","ED (30 mmHg) ([8]; Rattus norvegicus, oral gavage, about 15% decrease of SBP, read-out: ED30mmHg, dose causing a decrease of 30 mmHg from the basal value of SBP): 22.9 mg/kg; Duration of the antihypertensive effect ([8]; oral): about 4 hours; Ki [5]: 4 nM; Potency on D2 receptors, times more potent than dopamine and dopexamine ([5]; vs dopamine and dopexamine): about 100 times; Ki [7]: 195 nM; Potency on D1 receptors, times more potent than dopamine and dopexamine ([7]; vs dopamine and dopexamine): about 10 times"

# From patent US5407956A, “2-amino-1,2,3,4-tetrahydronaphthalene derivatives active on the cardiovascular system, processes for their preparation and pharmaceutical compositions containing them” (Zambon Group S.p.A., priority 1992, dated 1995)
